Reference: ChEMBL document CHEMBL3124815, “Discovery of a selective kinase inhibitor (TAK-632) targeting pan-RAF inhibition: design, synthesis, and biological evaluation of C-7-substituted 1,3-benzothiazole derivatives” (J Med Chem, 2013)

What was measured:
[1] = target: T1, Serine/threonine-protein kinase B-raf (Homo sapiens, UniProt P15056); test: Inhibition of N-terminal FLAG-tagged wild type BRAF (unknown origin) expressed in baculovirus system using GST-MEK1(K96R) as substrate after 20 mins
[2] = target: T2, Serine/threonine-protein kinase B-raf (Homo sapiens, UniProt P15056, V600E); test: Inhibition of BRAF V600E mutant in human HT-29 cells assessed as phosphorylation of MEK; type: cell-based
Rattus norvegicus [3] = test: Toxicity in F344 nude rat xenografted with human HMVII cells expressing NRAS Q61K/BRAF G469V mutant assessed as body weight change at 24.1 mg/kg, po bid for 14 days; type: organism-based; set-up: dose 24.1 mg/kg, route oral; conditions: in vivo, 336 h
Rattus norvegicus [4] = test: Toxicity in F344 nude rat xenografted with human HMVII cells expressing NRAS Q61K/BRAF G469V mutant assessed as body weight change at 3.9 mg/kg, po bid for 14 days; type: organism-based; set-up: dose 3.9 mg/kg, route oral; conditions: in vivo, 336 h
[5] = Antitumor activity against human HMVII cells expressing NRAS Q61K/BRAF G469V mutant xenografted in F344 nude rat assessed as reduction in tumor size at 24.1 mg/kg, po bid for 14 days relative to control; type: functional, HMV-2
Rattus norvegicus [6] = test: Toxicity in F344 nude rat xenografted with human A375 cells expressing BRAF V600E mutant assessed as body weight change at 24.1 mg/kg, po bid for 14 days relative to control; type: organism-based, A-375; set-up: dose 24.1 mg/kg, route oral; conditions: in vivo, 336 h
Rattus norvegicus [7] = test: Toxicity in F344 nude rat xenografted with human A375 cells expressing BRAF V600E mutant assessed as body weight change at 9.7 mg/kg, po bid for 14 days relative to control; type: organism-based, A-375; set-up: dose 9.7 mg/kg, route oral; conditions: in vivo, 336 h
Rattus norvegicus [8] = test: Toxicity in F344 nude rat xenografted with human A375 cells expressing BRAF V600E mutant assessed as body weight change at 3.9 mg/kg, po bid for 14 days relative to control; type: organism-based, A-375; set-up: dose 3.9 mg/kg, route oral; conditions: in vivo, 336 h
A-375 [9] = test: Antitumor activity against human A375 cells expressing BRAF V600E mutant xenografted in F344 nude rat assessed as reduction in tumor size at 24.1 mg/kg, po bid for 14 days relative to control; type: functional
A-375 [10] = test: Antitumor activity against human A375 cells expressing BRAF V600E mutant xenografted in F344 nude rat assessed as reduction in tumor size at 3.9 mg/kg, po bid for 14 days relative to control; type: functional
A-375 [11] = test: Antitumor activity against human A375 cells expressing BRAF V600E mutant xenografted in F344 nude rat assessed as reduction in tumor size at 1.9 mg/kg, po bid for 14 days relative to control; type: functional
[12] = AUC (0 to 24 hrs) in dog at 1 mg/kg, iv; type: ADME, organism-based, Canis lupus familiaris; set-up: time < 24 hr, dose 1 mg/kg, route intravenous; conditions: plasma
[13] = AUC (0 to 24 hrs) in rat at 1 mg/kg, iv; type: ADME, organism-based; set-up: time < 24 hr, dose 1 mg/kg, route intravenous; conditions: plasma
[14] = Mean residence time in dog at 10 mg/kg, po; type: ADME, organism-based, Canis lupus familiaris; set-up: dose 10 mg/kg, route oral; conditions: in vivo
[15] = Volume of distribution at steady state in rat at 1 mg/kg, iv; type: ADME, organism-based; set-up: dose 1 mg/kg, route intravenous; conditions: in vivo, read-out: Vdss
[16] = Solubility of the compound in phosphate buffer at pH 6.8; type: physicochemical
[17] = Antiproliferative activity against human HMVII cells assessed as growth inhibition after 72 hrs by chemi-luminescence cell viability assay; type: functional; conditions: HMV-2, 72 h
[18] = target: T2, Serine/threonine-protein kinase B-raf; test: Inhibition of BRAF V600E mutant in human A375 cells assessed as phosphorylation of ERK after 2 hrs by Western blotting analysis; type: cell-based, A-375
[19] = target: T3, RAF proto-oncogene serine/threonine-protein kinase (Homo sapiens, UniProt P04049); test: Inhibition of CRAF (unknown origin) compound preincubated for 1 hr in presence of 1000 uM ATP
[20] = target: T2, Serine/threonine-protein kinase B-raf; test: Inhibition of BRAF V600E mutant (unknown origin) compound preincubated for 1 hr in presence of 1000 uM ATP
[21] = target: T3, RAF proto-oncogene serine/threonine-protein kinase; test: Inhibition of CRAF (unknown origin) compound preincubated for 1 hr in presence of 0.5 uM ATP
[22] = target: T3, RAF proto-oncogene serine/threonine-protein kinase; test: Inhibition of CRAF (unknown origin) in presence of 1000 uM ATP by ELISA
[23] = target: T2, Serine/threonine-protein kinase B-raf; test: Inhibition of BRAF V600E mutant (unknown origin) in presence of 1000 uM ATP by ELISA
[24] = target: T3, RAF proto-oncogene serine/threonine-protein kinase; test: Competitive inhibition of CRAF (unknown origin) in presence of 0.5 uM ATP by ELISA
[25] = target: T3, RAF proto-oncogene serine/threonine-protein kinase; test: Binding affinity to CRAF (unknown origin) assessed as equilibrium dissociation constant by surface plasmon resonance analysis
[26] = target: Mitogen-activated protein kinase 8 (Homo sapiens, UniProt P45983); test: Inhibition of C-terminal FLAG-tagged JNK1 (unknown origin) expressed in baculovirus system using c-jun as substrate after 60 mins
Aurora kinase B = Aurora kinase B (Homo sapiens, UniProt Q96GD4); test: Inhibition of N-terminal His-6-tagged Aurora kinase B (unknown origin) expressed in baculovirus system after 60 mins
CDK2/Cyclin A2 = CDK2/Cyclin A2 (Homo sapiens, UniProt P24941); test: Inhibition of CDK2/CycA (unknown origin) using histone H1 as substrate after 20 mins; type: protein-complex assay
[27] = target: Casein kinase I isoform delta (Homo sapiens, UniProt P48730); test: Inhibition of CK1delta (unknown origin) using CK1tide as substrate after 20 mins
[28] = target: Serine/threonine-protein kinase Chk1 (Homo sapiens, UniProt O14757); test: Inhibition of CHK1 (unknown origin) using alpha-casein as substrate after 20 mins
[29] = target: Protein kinase C theta type (Homo sapiens, UniProt Q04759); test: Inhibition of C-terminal FLAG-tagged PKC-theta (unknown origin) expressed in […] using MBP as substrate after 60 mins
[30] = Inhibition of PKA (unknown origin) expressed in Escherichia coli after 10 mins; set-up: species or system Homo sapiens
Insulin receptor = Insulin receptor (Homo sapiens, UniProt P06213); test: Inhibition of Insulin receptor (unknown origin) using biotinylated poly-Glu-Tyr (4:1) as substrate preincubated for 5 mins measured after 12 hrs
[31] = target: Hepatocyte growth factor receptor (Homo sapiens, UniProt P08581); test: Inhibition of c-Met receptor (unknown origin) using biotinylated poly-Glu-Tyr (4:1) as substrate preincubated for 5 mins measured after 12 hrs
Angiopoietin-1 receptor = Angiopoietin-1 receptor (Homo sapiens, UniProt Q02763); test: Inhibition of TIE2 receptor (unknown origin) using biotinylated poly-Glu-Tyr (4:1) as substrate preincubated for 5 mins measured after 12 hrs
[32] = target: Receptor tyrosine-protein kinase erbB-2 (Homo sapiens, UniProt P04626); test: Inhibition of N-terminal peptide (DYKDDDD)-tagged HER2 (unknown origin) expressed in baculovirus system using biotinylated poly-Glu-Tyr (4:1) as substrate preincubated for 5 mins measured after 12 hrs by scintillation counting
[33] = target: T3, RAF proto-oncogene serine/threonine-protein kinase; test: Inhibition of N-terminal FLAG-tagged wild type C-RAF (unknown origin) expressed in baculovirus system using GST-MEK1(K96R) as substrate after 20 mins
Mus musculus = test: AUC (0 to 8 hrs) in mouse at 10 mg/kg, po; type: ADME, organism-based, Blood; set-up: time < 8 hr, dose 10 mg/kg, route oral; conditions: in vivo
[34] = target: T1, Serine/threonine-protein kinase B-raf
Description: Binding affinity to BRAF (unknown origin) assessed as dissociation half life by surface plasmon resonance analysis

T3 sequence (P04049 whole entry): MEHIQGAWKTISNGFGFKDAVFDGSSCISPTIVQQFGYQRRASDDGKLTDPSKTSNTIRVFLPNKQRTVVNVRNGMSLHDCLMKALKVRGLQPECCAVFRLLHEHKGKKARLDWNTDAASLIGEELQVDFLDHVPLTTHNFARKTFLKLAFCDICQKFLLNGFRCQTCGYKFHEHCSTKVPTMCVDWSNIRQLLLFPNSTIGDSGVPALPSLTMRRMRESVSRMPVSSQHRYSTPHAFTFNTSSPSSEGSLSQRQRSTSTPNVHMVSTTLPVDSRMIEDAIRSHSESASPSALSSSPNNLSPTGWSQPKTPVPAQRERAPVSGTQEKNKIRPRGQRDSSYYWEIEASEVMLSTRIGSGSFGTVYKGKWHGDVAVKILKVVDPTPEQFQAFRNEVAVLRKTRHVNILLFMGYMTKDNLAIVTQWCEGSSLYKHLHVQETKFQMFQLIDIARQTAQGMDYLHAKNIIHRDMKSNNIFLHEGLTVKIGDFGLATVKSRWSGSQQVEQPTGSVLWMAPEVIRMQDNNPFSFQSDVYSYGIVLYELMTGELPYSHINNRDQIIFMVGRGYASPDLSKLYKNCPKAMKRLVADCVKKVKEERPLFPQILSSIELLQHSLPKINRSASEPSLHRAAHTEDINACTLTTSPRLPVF
T2 sequence (P15056 2-766 V600E limits assumed): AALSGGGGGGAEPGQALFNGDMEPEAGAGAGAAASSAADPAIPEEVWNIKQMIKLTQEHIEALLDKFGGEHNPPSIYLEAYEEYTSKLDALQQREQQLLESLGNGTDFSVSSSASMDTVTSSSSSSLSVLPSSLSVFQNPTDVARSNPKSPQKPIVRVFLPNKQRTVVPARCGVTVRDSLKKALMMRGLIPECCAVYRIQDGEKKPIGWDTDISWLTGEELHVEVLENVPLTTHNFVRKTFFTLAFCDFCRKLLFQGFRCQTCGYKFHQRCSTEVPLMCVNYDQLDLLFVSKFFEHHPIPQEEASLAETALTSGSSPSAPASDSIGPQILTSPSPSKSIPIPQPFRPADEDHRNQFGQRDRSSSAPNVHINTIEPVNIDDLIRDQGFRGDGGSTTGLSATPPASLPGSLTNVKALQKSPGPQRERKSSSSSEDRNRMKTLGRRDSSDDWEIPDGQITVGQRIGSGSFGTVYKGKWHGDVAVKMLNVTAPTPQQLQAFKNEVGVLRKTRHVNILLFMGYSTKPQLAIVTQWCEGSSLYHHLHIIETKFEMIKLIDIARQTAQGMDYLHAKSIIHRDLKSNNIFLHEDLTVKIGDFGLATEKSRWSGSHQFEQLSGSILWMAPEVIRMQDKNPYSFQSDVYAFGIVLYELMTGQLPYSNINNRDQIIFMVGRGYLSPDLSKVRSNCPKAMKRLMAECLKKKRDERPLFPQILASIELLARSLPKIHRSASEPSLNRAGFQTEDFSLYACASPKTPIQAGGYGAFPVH
T1 sequence (P15056 whole entry): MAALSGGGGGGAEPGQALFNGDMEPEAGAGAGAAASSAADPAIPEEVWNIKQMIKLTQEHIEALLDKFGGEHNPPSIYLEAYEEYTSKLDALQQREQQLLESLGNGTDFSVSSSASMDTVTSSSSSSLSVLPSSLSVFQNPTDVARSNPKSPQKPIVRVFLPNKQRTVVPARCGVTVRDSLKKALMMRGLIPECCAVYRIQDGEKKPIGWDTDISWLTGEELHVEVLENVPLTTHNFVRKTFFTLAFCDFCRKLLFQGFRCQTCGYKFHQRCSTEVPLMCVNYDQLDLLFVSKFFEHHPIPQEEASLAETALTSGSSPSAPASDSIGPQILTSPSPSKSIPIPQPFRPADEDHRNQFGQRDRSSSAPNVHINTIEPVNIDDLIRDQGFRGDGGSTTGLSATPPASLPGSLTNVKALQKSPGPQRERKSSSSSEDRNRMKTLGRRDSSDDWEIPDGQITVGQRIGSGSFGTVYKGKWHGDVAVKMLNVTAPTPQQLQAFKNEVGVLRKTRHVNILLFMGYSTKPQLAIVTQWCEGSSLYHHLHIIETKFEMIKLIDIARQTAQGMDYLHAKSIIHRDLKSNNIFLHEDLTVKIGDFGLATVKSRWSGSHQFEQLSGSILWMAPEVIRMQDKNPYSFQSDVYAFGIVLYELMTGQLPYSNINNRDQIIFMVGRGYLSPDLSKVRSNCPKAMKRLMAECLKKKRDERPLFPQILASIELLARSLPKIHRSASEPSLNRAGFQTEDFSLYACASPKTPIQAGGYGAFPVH
Insulin receptor, sequence (P06213 28-758 limits assumed): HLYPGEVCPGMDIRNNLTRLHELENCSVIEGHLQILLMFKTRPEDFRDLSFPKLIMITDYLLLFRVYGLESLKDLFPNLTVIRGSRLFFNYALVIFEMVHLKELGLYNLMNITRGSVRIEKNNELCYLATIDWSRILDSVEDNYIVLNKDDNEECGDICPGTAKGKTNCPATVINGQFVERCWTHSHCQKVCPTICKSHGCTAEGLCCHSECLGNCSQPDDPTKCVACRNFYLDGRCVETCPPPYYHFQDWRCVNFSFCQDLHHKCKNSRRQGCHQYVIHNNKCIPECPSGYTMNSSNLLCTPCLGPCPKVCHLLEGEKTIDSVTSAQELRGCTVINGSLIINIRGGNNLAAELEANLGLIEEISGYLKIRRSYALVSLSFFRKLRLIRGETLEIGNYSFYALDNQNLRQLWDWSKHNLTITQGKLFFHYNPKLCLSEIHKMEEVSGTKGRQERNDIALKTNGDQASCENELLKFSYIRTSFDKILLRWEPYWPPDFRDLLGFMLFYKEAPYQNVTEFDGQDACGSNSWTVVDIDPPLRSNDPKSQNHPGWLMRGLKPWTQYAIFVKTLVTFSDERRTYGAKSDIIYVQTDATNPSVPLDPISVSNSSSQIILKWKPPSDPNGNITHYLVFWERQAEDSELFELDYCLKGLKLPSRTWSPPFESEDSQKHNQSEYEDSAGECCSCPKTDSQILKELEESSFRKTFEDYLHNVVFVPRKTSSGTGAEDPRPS
Insulin receptor, sequence (P06213 763-1382 limits assumed): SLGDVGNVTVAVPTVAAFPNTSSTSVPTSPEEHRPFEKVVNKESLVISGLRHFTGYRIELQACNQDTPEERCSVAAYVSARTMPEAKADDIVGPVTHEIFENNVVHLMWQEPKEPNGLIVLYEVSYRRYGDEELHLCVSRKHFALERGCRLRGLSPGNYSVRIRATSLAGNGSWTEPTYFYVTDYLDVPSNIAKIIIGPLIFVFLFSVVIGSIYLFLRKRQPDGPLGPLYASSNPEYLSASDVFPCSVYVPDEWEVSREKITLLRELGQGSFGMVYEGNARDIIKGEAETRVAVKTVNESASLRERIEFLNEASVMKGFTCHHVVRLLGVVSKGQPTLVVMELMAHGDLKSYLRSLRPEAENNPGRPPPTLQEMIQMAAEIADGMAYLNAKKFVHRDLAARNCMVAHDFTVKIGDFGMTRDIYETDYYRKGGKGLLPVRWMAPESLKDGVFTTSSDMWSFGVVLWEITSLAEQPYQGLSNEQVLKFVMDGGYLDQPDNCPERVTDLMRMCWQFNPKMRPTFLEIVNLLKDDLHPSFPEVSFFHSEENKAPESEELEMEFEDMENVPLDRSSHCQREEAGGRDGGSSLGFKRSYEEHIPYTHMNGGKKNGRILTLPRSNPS
Serine/threonine-protein kinase Chk1, sequence (O14757 whole entry): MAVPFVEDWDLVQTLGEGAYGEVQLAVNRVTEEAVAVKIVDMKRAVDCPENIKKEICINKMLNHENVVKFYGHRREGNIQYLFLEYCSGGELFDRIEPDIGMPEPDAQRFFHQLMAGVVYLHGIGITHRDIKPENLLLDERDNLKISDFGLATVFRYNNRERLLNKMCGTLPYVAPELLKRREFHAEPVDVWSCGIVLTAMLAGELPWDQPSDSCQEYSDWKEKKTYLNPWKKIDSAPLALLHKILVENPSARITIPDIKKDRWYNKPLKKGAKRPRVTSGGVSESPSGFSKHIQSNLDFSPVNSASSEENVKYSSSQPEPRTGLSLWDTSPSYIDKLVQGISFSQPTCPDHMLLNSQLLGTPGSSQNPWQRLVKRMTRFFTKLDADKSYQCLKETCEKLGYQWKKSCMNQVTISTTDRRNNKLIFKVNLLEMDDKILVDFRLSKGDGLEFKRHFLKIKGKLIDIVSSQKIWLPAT
Aurora kinase B, sequence (Q96GD4 whole entry): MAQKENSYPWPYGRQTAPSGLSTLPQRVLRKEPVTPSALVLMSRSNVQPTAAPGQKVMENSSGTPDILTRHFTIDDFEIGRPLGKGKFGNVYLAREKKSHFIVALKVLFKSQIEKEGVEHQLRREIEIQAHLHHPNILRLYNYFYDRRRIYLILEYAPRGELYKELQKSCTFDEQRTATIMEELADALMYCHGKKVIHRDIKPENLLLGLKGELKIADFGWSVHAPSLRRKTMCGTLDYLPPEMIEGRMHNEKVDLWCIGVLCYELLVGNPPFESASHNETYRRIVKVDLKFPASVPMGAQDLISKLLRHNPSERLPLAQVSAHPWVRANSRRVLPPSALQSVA
Mitogen-activated protein kinase 8, sequence (P45983 whole entry): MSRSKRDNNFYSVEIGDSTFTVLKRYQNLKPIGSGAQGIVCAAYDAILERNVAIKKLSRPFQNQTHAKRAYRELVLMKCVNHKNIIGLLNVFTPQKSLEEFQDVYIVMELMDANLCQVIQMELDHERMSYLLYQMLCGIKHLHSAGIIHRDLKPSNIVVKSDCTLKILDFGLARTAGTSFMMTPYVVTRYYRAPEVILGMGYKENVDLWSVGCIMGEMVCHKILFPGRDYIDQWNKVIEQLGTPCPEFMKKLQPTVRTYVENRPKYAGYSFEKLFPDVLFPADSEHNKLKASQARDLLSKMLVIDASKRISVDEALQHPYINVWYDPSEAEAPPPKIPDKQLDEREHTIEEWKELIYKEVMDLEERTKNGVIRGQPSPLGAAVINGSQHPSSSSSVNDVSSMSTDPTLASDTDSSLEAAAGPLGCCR

Compound: N#Cc1c(Oc2ccc(F)c(NC(=O)Cc3cccc(C(F)(F)F)c3)c2)ccc2nc(NC(=O)C3CC3)sc12
- IC50 [1]: 8.3 nM
- IC50 [2]: 75 nM
- Activity (Rattus norvegicus [3]): 28.4 g
- Activity (Rattus norvegicus [4]): -4.8 g
- T/C [5]: 0%
- Activity (Rattus norvegicus [6]): 18.6 g
- Activity (Rattus norvegicus [7]): 14 g
- Activity (Rattus norvegicus [8]): 11.2 g
- T/C (A-375 [9]): -12.1%
- T/C (A-375 [10]): 62.2%
- T/C (A-375 [11]): 103%
- AUC(0-t) at 24 h [12]: 1430 ng·h/mL
- AUC(0-t) at 24 h [13]: 2510 ng·h/mL
- MRT [14]: 7.12 h
- Vd [15]: 1.87 L/kg
- solubility [16]: < 0.02 µg/mL
- GI50 [17]: 200 nM
- IC50 [18]: 16 nM
- IC50 [19]: 5 nM
- IC50 [20]: 3.3 nM
- IC50 [21]: 1.5 nM
- IC50 [22]: 62 nM
- IC50 [23]: 58 nM
- IC50 [24]: 8.1 nM
- inhibition ([24]; TDE = time-dependent effect): tde
- Kd [25]: 0.52 nM
- IC50 [26]: > 10000 nM
- IC50 (Aurora kinase B): 66 nM
- IC50 (CDK2/Cyclin A2): 580 nM
- IC50 [27]: > 10000 nM
- IC50 [28]: 1400 nM
- IC50 [29]: > 10000 nM
- IC50 [30]: > 10000 nM
- IC50 (Insulin receptor): > 10000 nM
- IC50 [31]: > 10000 nM
- IC50 (Angiopoietin-1 receptor): 740 nM
- IC50 [32]: > 10000 nM
- IC50 [33]: 1.4 nM
- AUC (Mus musculus): 2480 ng·h/mL
- T1/2 [34]: 10 h
